In this experiment the test system is Staphylococcus aureus. Put plainly: Antimicrobial examination of photopolymerized, washed adhesive films on slides. Type of experiment: cell-based. The note with it: adhesive with 5 wt.-% MDPB, film washed two days with water. Here is the method:
The above adhesives were applied to a slide and photopolymerized using a UV lamp.
In a Petri dish, a modified slide was covered with 30 ml of a Staphylococcus aureus suspension in PBS (→10^7 bacteria cells/ml) and then incubated accompanied by light shaking (50 rpm) for 1 h at 37° C. The bacterial suspension was then drawn off and the slide was washed with pure PBS (15+15 ml). The slide was then dried, transferred to a new Petri dish, covered with 30 ml 1.5% nutrient agar and then incubated at 37° C. A blind sample was then analogously tested in each case using a slide which was coated with adhesive without biocidal macromer.
The mixture was applied to a slide and photopolymerized with the help of a UV lamp. […] A slide which had been coated with adhesive without the biocidal monomer MDPH served as comparison.

Structures are written as SMILES.

The record followed here is patent US7553881B2, “Dental materials based on radically polymerizable macromers with antimicrobial effect” (Ivoclar Vivadent AG, priority 2006, dated 2009).

`C=C(C)C(=O)OCCCCCCCCCCCC[n+]1ccccc1.[Br-]` [MDPB, 12-methacryloyloxydodecylpyridinium bromide]: the “bacterial growth on slide coated with polymerized adhesive” value is listed as “no bacterial decay attack on the film itself”. Besides, the “bacterial growth on slide coated with polymerized adhesive” value (listed as MDPH) was “no bacterial attack”.
